One data set in a line: Solubility in water. The format is physicochemical. The protocol:
The solubility in water of compounds of the present invention was determined by shaking the compounds in water for one hour at room temperature followed by filtration and determination of the concentration of the compound in the filtrate by HPLC. […]

Data set [1] deals with normal human endothelial cells. Particulars: cited from earlier work.
The subject of data set [2] is human lung and breast cancer cell lines. The settings on record: cited from earlier work.
The next data set concerns human tumour cells. Particulars: nude mice transplanted with human tumour cells, also paclitaxel-resistant tumour cells; cited from earlier work.
The test system of data set [3] is human lung cancer tumour xenograft. Particulars: cited from earlier work.

The text below walks through data of patent US6525077B2, “Cyanoguanidine prodrugs” (Leo Pharmaceutical Products Ltd. A/S, priority 2000, dated 2003).

≈ marks a conversion by molar mass, not a printed value.

With `COCCOCCOCCOCC(=O)OC[n+]1ccc(NC(=NC#N)NCCCCCCOc2ccc(Cl)cc2)cc1.[Cl-]` [Example 8, 1-[2-(2-(2-Methoxyethoxy)-ethoxy)-ethoxy-acetoxymethyl]-4-[N′-cyano-N″-(6-(4-chlorophenoxy)-hexyl)-N-guanidino]-pyridinium chloride], the Solubility in water in “Solubility in water” is more than 50 mg/mL.

In the data set “Solubility in water”, `COCCOCCOCCOCCOC(=O)OC[n+]1ccc(NC(=NC#N)NCCCCCCOc2ccc(Cl)cc2)cc1.[Cl-]` [Example 9, 1-[2-(2-(2-(2-Methoxyethoxy)-ethoxy)-ethoxy)-ethoxy-carbonyloxymethyl]-4-[N′-cyano-N″-(6-(4-chlorophenoxy)-hexyl)-N-guanidino]-pyridinium chloride] came in with a Solubility in water of more than 50 mg/mL.

In turn, `N#CNC(=Nc1ccncc1)NCCCCCCOc1ccc(Cl)cc1` [N-(6-(4-chlorophenoxy)-hexyl)-N′-cyano-N″-(4-pyridyl)-guanidine] displayed a solubility at 1 h in “Solubility in water” (thermodynamic from solid, shaken in water for one hour at room temperature, filtration, filtrate by HPLC) of 0.0002 mg/mL (≈ 0.538 µM). In addition, the “solubility (in words)” value in the data set “Solubility in water” (water) is “for all practical purposes insoluble”. The “antiproliferative activity on normal human endothelial cells” value in data set [1] is on record as “considerably less antiproliferative activity”. Also, the “antiproliferative activity in vitro” value in data set [2] was “high antiproliferative activity”. Besides, the “antitumour activity in vivo” value with human tumour cells was “substantial antitumour activity”. Further, the “antitumour activity in the nude mouse model” value in data set [3] was “potent antitumour activity”.

Broadly, the solubility is the concentration that dissolves in the medium under given conditions. Higher therefore signals a readily soluble substance.
